Reference: patent US11286263B2, “Macrocyclic fluorine substituted indole derivatives” (The Broad Institute, Inc., priority 2017, dated 2022)
Counter-ions that a name gives are not always drawn.

biological target: MCL-1 (Homo sapiens (Human), UniProt Q07820, K194A/K197A/R201A); assay: Protein-protein interaction assay MCL-1/Noxa BH3 peptide (MCL-1 assay), TR-FRET; assay type: binding; conditions: MCL-1/Noxa BH3 peptide TR-FRET; median
Method in brief: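 TR-FRET competition between MBP-MCL-1 (173-321, 1 nM) and biotin-Noxa BH3 peptide (1 nM) with anti-MBP-Eu/streptavidin-XL665; 11 compound levels 0.1 nM–20 μM, 10 min preincubation. Incubated 1 h at 22 °C then overnight at 4 °C, pH 7 Tris buffer. 665/620 ratio normalized to DMSO and no-MCL-1; 4-parameter IC50.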

Chain of MCL-1 (Q07820 whole entry K194A/K197A/R201A, looked up): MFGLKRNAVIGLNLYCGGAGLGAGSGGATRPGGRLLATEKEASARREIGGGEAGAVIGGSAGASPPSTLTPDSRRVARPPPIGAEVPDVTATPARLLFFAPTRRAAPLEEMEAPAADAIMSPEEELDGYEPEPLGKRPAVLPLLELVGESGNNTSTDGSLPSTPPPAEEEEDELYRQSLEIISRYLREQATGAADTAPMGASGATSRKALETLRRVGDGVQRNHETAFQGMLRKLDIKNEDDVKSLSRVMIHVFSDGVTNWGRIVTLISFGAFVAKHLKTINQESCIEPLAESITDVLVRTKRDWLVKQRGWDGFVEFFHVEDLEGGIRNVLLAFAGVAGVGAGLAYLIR

Compound	IC50 [nM]
Cc1c2c(nn1C)COCCCCn1c(C(=O)O)c(CCCOc3cccc4ccccc34)c3ccc(F)c-2c31 (single isomer, unassigned; enantiomer 1) [Example 3, 4-fluoro-2,3-dimethyl-7-[3-(naphthalen-1-yloxy)propyl]-2,10,11,12,13,15-hexahydropyrazolo-[4′,3′:9,10][1,6]oxazacycloundecino[8,7,6-hi]indole-8-carboxylic acid-N-ethylethanamine salt (enantiomer 1)]	1.3
Cc1c2c(nn1C)COCCCCn1c(C(=O)O)c(CCCOc3ccc(F)c4ccccc34)c3ccc(F)c-2c31 (single isomer, unassigned; enantiomer 1) [Example 16, 4-fluoro-7-{3-[(4-fluoronaphthalen-1-yl)oxy]propyl}-2,3-dimethyl-2,10,11,12,13,15-hexahydro-pyrazolo[4′,3′:9,10][1,6]oxazacycloundecino[8,7,6-hi]indole-8-carboxylic acid (enantiomer 1)]	1.9
CCc1c2c(nn1C)COCCCCn1c(C(=O)O)c(CCCOc3ccc(F)c4ccccc34)c3ccc(F)c-2c31 (single isomer, unassigned; enantiomer 1) [Example 27, 3-ethyl-4-fluoro-7-{3-[(4-fluoronaphthalen-1-yl)oxy]propyl}-2-methyl-2,10,11,12,13,15-hexahydropyrazolo[4′,3′:9,10][1,6]oxazacycloundecino[8,7,6-hi]indole-8-carboxylic acid-N-ethylethanamine salt (enantiomer 1)]	1.5
CCc1nn(C)c2c1-c1c(F)ccc3c(CCCOc4ccc(F)c5ccccc45)c(C(=O)O)n(c13)CCCCOC2 (single isomer, unassigned; enantiomer 1) [Example 42, 3-ethyl-4-fluoro-7-{3-[(4-fluoronaphthalen-1-yl)oxy]propyl}-1-methyl-1,10,11,12,13,15-hexahydropyrazolo[4′,3′:9,10][1,6]oxazacycloundecino[8,7,6-hi]indole-8-carboxylic acid (enantiomer 1)]	1.7
Cc1c2c(nn1C)CNCCCCn1c(C(=O)O)c(CCCOc3cccc4ccccc34)c3ccc(F)c-2c31 (single isomer, unassigned; enantiomer 1) [Example 48, 4-fluoro-2,3-dimethyl-7-{3-[(naphthalen-1-yl)oxy]propyl}-10,11,12,13,14,15-hexahydro-2H-pyrazolo[3′,4′:8,9][1,6]diazacycloundecino[10,11,1-hi]indole-8-carboxylic acid (enantiomer 1)]	1.1
CCc1c2c(nn1C)COCCCCn1c(C(=O)O)c(CCCOc3cccc4cc(F)ccc34)c3ccc(F)c-2c31 (single isomer, unassigned; enantiomer 2) [Example 23, 3-ethyl-4-fluoro-7-{3-[(6-fluoronaphthalen-1-yl)oxy]propyl}-2-methyl-2,10,11,12,13,15-hexahydropyrazolo[4′,3′:9,10][1,6]oxazacycloundecino[8,7,6-hi]indole-8-carboxylic acid-N-ethylethanamine salt (enantiomer 2)]	9.6
(rac)-1-(3-((2,3-dihydro-1H-inden-4-yl)oxy)propyl)-12-ethyl-13-fluoro-11-methyl-4,5,6,7,9,11-hexahydropyrazolo[4′,3′:9,10][1]oxa[6]azacycloundecino[8,7,6-hi]indole-2-carboxylic acid [Example 30]	1.3

Compounds with a lower IC50, results first:

IC50 [nM]	Compound
0.91	CCc1c2c(nn1C)CN(C)CCCCn1c(C(=O)O)c(CCCOc3cccc4cc(F)ccc34)c3ccc(F)c-2c31 (racemic) [Example 53, (rac)-3-ethyl-4-fluoro-7-{3-[(6-fluoro-1-naphthyhoxy]propyl}-2,14-dimethyl-10,11,12,13,14,15-hexahydro-2H-pyrazolo[3′,4′:8,9][1,6]diazacycloundecino[10,11,1-hi]indole-8-carboxylic acid]
0.72	CCc1c2c(nn1C)CN(C)CCCCn1c(C(=O)O)c(CCCOc3cccc4ccccc34)c3ccc(F)c-2c31 (racemic) [Example 54, (rac)-3-ethyl-4-fluoro-2,14-dimethyl-7-[3-(1-naphthyloxy)propyl]-10,11,12,13,14,15-hexahydro-2H-pyrazolo[3′,4′:8,9][1,6]diazacycloundecino[10,11,1-hi]indole-8-carboxylic acid]
0.97	CCc1c2c(nn1C)COCCCCn1c(C(=O)O)c(CCCOc3cccc4ccccc34)c3ccc(F)c-2c31 (single isomer, unassigned; enantiomer 1) [Example 7, 3-ethyl-4-fluoro-2-methyl-7-{3-[(naphthalen-1-yl)oxy]propyl}-2,10,11,12,13,15-hexahydro-pyrazolo[4′,3′:9,10][1,6]oxazacycloundecino[8,7,6-hi]indole-8-carboxylic acid-N-ethylethanamine salt (enantiomer 1)]
0.98	Cc1c2c(nn1C)COCCCCn1c(C(=O)O)c(CCCOc3cccc4cc(F)ccc34)c3ccc(F)c-2c31 (single isomer, unassigned; enantiomer 1) [Example 13, 4-fluoro-7-{3-[(6-fluoronaphthalen-1-yl)oxy]propyl}-2,3-dimethyl-2,10,11,12,13,15-hexahydro-pyrazolo[4′,3′:9,10][1,6]oxazacycloundecino[8,7,6-hi]indole-8-carboxylic acid-N-ethylethanamine salt (enantiomer 1)]
0.45	CCc1c2c(nn1C)COCCCCn1c(C(=O)O)c(CCCOc3cccc4cc(F)ccc34)c3ccc(F)c-2c31 (single isomer, unassigned; enantiomer 1) [Example 22, 3-ethyl-4-fluoro-7-{3-[(6-fluoronaphthalen-1-yl)oxy]propyl}-2-methyl-2,10,11,12,13,15-hexahydropyrazolo[4′,3′:9,10][1,6]oxazacycloundecino[8,7,6-hi]indole-8-carboxylic acid-N-ethylethanamine salt (enantiomer 1)]
0.58	CCc1c2c(nn1C)COCCCCn1c(C(=O)O)c(CCCOc3cccc4cc(F)ccc34)c3ccc(F)c-2c31 (single isomer, unassigned; enantiomer 1) [Example 24, 3-ethyl-4-fluoro-7-{3-[(6-fluoronaphthalen-1-yl)oxy]propyl}-2-methyl-2,10,11,12,13,15-hexahydropyrazolo[4′,3′:9,10][1,6]oxazacycloundecino[8,7,6-hi]indole-8-carboxylic acid (enantiomer 1)]
0.8	CCc1nn(C)c2c1-c1c(F)ccc3c(CCCOc4cccc5cc(F)ccc45)c(C(=O)O)n(c13)CCCCOC2 (single isomer, unassigned; enantiomer 1) [Example 39, 3-ethyl-4-fluoro-7-{3-[(6-fluoronaphthalen-1-yl)oxy]propyl}-1-methyl-1,10,11,12,13,15-hexahydropyrazolo[4′,3′:9,10][1,6]oxazacycloundecino[8,7,6-hi]indole-8-carboxylic acid-N-ethylethanamine salt (enantiomer 1)]
